Earlier results in US9089619B2, “Hybrid nanocrystals for treatment and bioimaging of disease” (University of Kentucky, priority 2005, dated 2015).

Conditions: water at 25° C.

solubility in water: about 1.6 μg/ml
SMILES: Nc1nc2ncc(CNc3ccc(C(=O)N[C@@H](CCC(=O)O)C(=O)O)cc3)nc2c(=O)[nH]1 [Folic acid]
